Results on 9 compounds are retold here after publication PMC6429202, “Drug-1,3,4-Thiadiazole Conjugates as Novel Mixed-Type Inhibitors of Acetylcholinesterase: Synthesis, Molecular Docking, Pharmacokinetics, and ADMET Evaluation” (Molecules, 2019).

The target of assay [1] is T1, AChE from human erythrocytes (Homo sapiens, UniProt P22303).
T1 construct: AChE from human erythrocytes; from tissue; host or cells: human erythrocytes
Description: Acetylcholinesterase inhibition assay (Ellman method). It counts as biochemical. The protocol: The inhibitory activities of the synthesized compounds were analyzed spectrophotometrically using acetylthiocholine iodide as the substrate by following the method of Ellman et al.. In general, the reaction mixture comprised 180 µL of 50 mM of Tris HCl buffer (pH 8.0) with 0.1 M of sodium chloride and 0.02 M of magnesium chloride, to which 20 µL of enzyme (AChE, EC 3.1.1.7, AChE from human erythrocytes) solution was added (50 U in each well). The synthesized compounds (10 µL at the concentration being tested for their impact on growth) were added to the reaction mixture, and the mixtures were pre-incubated for 30 min at 4 °C. Then, 5,5′-dithiobis(2-nitrobenzoic acid) (0.3 mM, 20 µL) and acetylthiocholine iodide (1.8 mM, 20 µL) were added to the assay solution, and the mixtures were incubated at 37 °C for 10 min. After the incubation period, the absorbance of each well was measured at 412 nm. For the non-enzymatic reaction, the assays were carried out with a blank containing all the components except AChE. The assay measurements were collected at […] using a microplate reader (OPTI Max, Tunable, Molecular Devices, Sunnyvale, CA, USA). IC50 values were calculated using GraphPad Prism 5.0 through non-linear regression. Each experiment was performed in triplicate.
The percentage of inhibition of […] was calculated: inhibition (%) = [(Blank−Sample)/Blank] × 100.
For orientation: DTNB colorimetry detects thiols as they appear.

The nature of assay [2]: DPPH free radical scavenging assay. The note with it: tested at 100 µg/mL; compared with vitamin C. Here is the method:
The synthesized compounds were further evaluated for their 2,2-diphenyl-1-picrylhydrazyl (DPPH) radical scavenging capacity. To evaluate their DPPH inhibition abilities, a radical scavenging assay was performed. The assay mixtures contained 20 µL of increasing concentrations of the test compounds and 100 µL of DPPH (150 µM), and the total volume of each well was brought up to 200 µL with methanol. Then, the mixture was incubated for 30 min at room temperature. For comparison and assay validity, ascorbic acid (vitamin C) was used as a positive control. The absorbance was recorded at 517 nm using a microplate reader (OPTI Max, Tunable). The results were calculated as percent inhibition. All of the concentrations were evaluated in triplicate.

Assay [3] concerns the target T1, AChE from human erythrocytes. As to the kind of experiment: Kinetic study of AChE inhibition (Lineweaver–Burk plots). It counts as biochemical. To be noted: for Vmax: substrate acetylthiocholine iodide. The protocol: To determine the inhibition mechanism, a kinetic study was carried out. Compound 3b was selected from the synthesized compounds for kinetic analysis to determine its inhibition potential. The identification of the inhibition mode of compound 3b began by using a series of concentrations of acetylthiocholine iodide (0.00 µM, 0.009 µM, 0.018 µM, and 0.036 µM) with various concentrations of 3b. […] The highest reaction rates were calculated from the initial linear portion of the absorbance plot, which represented the five minutes following the addition of the enzyme, and absorbance data were collected at 30-second intervals. The type of enzyme inhibition was determined from the Lineweaver–Burk plots of the inverse of velocity (1/V) versus the inverse of substrate concentration (1/[S] mM^−1).
The efficiency of 3b in blocking the free enzyme and enzyme–substrate complex was investigated in terms of its enzyme inhibition (EI) and enzyme–substrate inhibition (ESI) constants. […] The plots of the effects of complex 3b were linear and appeared in the second quadrant.

The mark [4] stands for this setting: mean ± SEM, triplicate, substrate acetylthiocholine iodide, read-out: Acetylcholine Esterase (from Human Erythrocytes) IC50 ± SEM.

Molecules are shown by their SMILES. Read-outs that look alike come from different tables or passages of the source.

T1 sequence (P22303 other isoform, or with tags, fused parts or gaps): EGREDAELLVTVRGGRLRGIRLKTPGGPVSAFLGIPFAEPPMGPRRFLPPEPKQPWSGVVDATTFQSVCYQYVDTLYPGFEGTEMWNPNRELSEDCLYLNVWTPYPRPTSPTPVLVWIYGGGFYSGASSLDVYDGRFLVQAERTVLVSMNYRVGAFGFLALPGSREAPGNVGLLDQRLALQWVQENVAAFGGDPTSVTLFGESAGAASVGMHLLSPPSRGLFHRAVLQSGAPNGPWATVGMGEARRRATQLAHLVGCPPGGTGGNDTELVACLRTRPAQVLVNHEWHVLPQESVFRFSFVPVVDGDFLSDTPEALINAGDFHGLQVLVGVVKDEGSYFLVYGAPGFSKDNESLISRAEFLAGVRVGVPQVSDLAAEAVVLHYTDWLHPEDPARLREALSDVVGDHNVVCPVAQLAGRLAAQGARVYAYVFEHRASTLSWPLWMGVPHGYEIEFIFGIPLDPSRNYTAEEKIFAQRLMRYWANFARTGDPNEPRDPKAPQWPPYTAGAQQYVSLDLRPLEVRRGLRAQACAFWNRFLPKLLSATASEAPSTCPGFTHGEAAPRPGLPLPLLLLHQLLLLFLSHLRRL

With `Nc1nnc(-c2cn(C3CC3)c3cc(N4CCNCC4)c(F)cc3c2=O)s1` [Compound 3a, 3-(5-amino-1,3,4-thiadiazol-2-yl)-1-cyclopropyl-6-fluoro-7-(piperazin-1-yl)quinolin-4(1H)-one], the IC50 – broadly, the concentration that gives 50% inhibition – in assay [1] stood at 126 ± 3.6 nM. Further, the “Free radical scavenging potency (DPPH)” value in assay [2] is recorded as “excellent radical scavenging potency”.

Turning to `Nc1nnc(-c2cn(C3CC3)c3cc(N4CCN(C(=O)c5cccc([N+](=O)[O-])c5)CC4)c(F)cc3c2=O)s1` [Compound 3g, 3-(5-amino-1,3,4-thiadiazol-2-yl)-1-cyclopropyl-6-fluoro-7-(4-(3-nitrobenzoyl)piperazin-1-yl)qui nolin-4(1H)-one], the 50% inhibitory concentration (IC50) in assay [1] (setting [4]) is 1180 ± 59.1 nM. `C[C@@H]1COc2c(N3CCNCC3)c(F)cc3c(=O)c(-c4nnc(N)s4)cn1c23` [Compound 3b, (R)-6-(5-amino-1,3,4-thiadiazol-2-yl)-9-fluoro-3-methyl-10-(piperazin-1-yl)-2H-[1,4]oxazino[2,3,4-ij]quinolin-7(3H)-one]: the Vmax is given as 0.000467 ΔA/Sec in assay [3] (3b concentration 0.009 µM), 0.000343 ΔA/Sec in assay [3] (3b concentration 0.018 µM) and 0.000183 ΔA/Sec in assay [3] (3b concentration 0.036 µM). The “Mode of inhibition of AChE” value in assay [3] (Lineweaver–Burk analysis) is recorded as “mixed mode of inhibition”. In addition, in assay [3] (from plot of slope versus inhibitor concentration, read-out: Ki (EI dissociation constant)), the Ki (commonly a measure of affinity in units of concentration, obtained from inhibition or displacement) came to 3.1 nM. Besides, the IC50 in assay [1] (setting [4]) was 18.1 ± 0.9 nM. In assay [2], the “Free radical scavenging potency (DPPH)” value was “excellent radical scavenging potency”. For the compound `COc1ccc(C(=O)N2CCN(c3cc4c(cc3F)c(=O)c(-c3nnc(N)s3)cn4C3CC3)CC2)cc1` [Compound 3h, 3-(5-amino-1,3,4-thiadiazol-2-yl)-1-cyclopropyl-6-fluoro-7-(4-(4-methoxybenzoyl)piperazin-1-yl)quinolin-4(1H)-one], in assay [1] (setting [4]), the IC50 amounted to 1710 ± 86.5 nM. On to `CC(C)Cc1ccc(C(C)c2nnc(N)s2)cc1` (stereo not shown) [Compound 3d, 5-(1-(4-isobutylphenyl)ethyl)-1,3,4-thiadiazol-2-amine], for which the IC50 in assay [1] (setting [4]) came to 2240 ± 112 nM. For the compound `C[C@@H]1COc2c(N3CCN(C)CC3)c(F)cc3c(=O)c(-c4nnc(N)s4)cn1c23` [Compound 3c, (R)-6-(5-amino-1,3,4-thiadiazol-2-yl)-9-fluoro-3-methyl-10-(4-methylpiperazin-1-yl)-2H-[1,4]oxazino[2,3,4-ij]quinolin-7(3H)-one], the IC50 in assay [1] (setting [4]) was 576.3 ± 3.6 nM.

For the compound `COc1ccc2cc([C@H](C)c3nnc(N)s3)ccc2c1` [Compound 3e, (S)-5-(1-(6-methoxynaphthalen-2-yl)ethyl)-1,3,4-thiadiazol-2-amine], the half-maximal inhibitory concentration (IC50) in assay [1] (setting [4]) was found to be 3810 ± 190 nM.

With `Nc1nnc(COCCN2CCN(C(c3ccccc3)c3ccc(Cl)cc3)CC2)s1` (stereo not shown) [Compound 3f, 5-((2-(4-((4-chlorophenyl)(phenyl)methyl)piperazin-1-yl)ethoxy)methyl)-1,3,4-thiadiazol-2-amine], the IC50 in assay [1] (setting [4]) turned out to be 17300 ± 863 nM. Same read-out and setting: with `Nc1nnc(-c2cn(C3CC3)c3cc(N4CCN(C(=O)c5ccc(Cl)cc5Cl)CC4)c(F)cc3c2=O)s1` [Compound 3i, 3-(5-amino-1,3,4-thiadiazol-2-yl)-1-cyclopropyl-7-(4-(2,4-dichlorobenzoyl)piperazin-1-yl)-6-fluoroquinolin-4(1H)-one] the figure was 29200 ± 1460 nM.
